Measurements reported in PubChem BioAssay (NCI).
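Dose response: 5 concentrations. Exposure: 48 h. Format: 96-well plates. Endpoint: linear interpolation; highest concentration if not reached. The concentration for full growth arrest is given as TGI.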

Experiments:
Assay in all cases: inhibition of tumour cell growth, NCI panel, 48 h
[1] = tested on: 786-0 renal
[2] = tested on: A498 renal
[3] = tested on: A549 NSCLC
[4] = tested on: ACHN renal
[5] = tested on: BT-549 breast
[6] = tested on: CAKI-1 renal
[7] = tested on: CCRF-CEM leukemia
[8] = tested on: COLO 205 colon
[9] = tested on: DLD-1 colon
[10] = tested on: DMS 114 small cell lung
[11] = tested on: DMS 273 small cell lung
[12] = tested on: DU-145 prostate
[13] = tested on: EKVX NSCLC
[14] = tested on: HCC-2998 colon
[15] = tested on: HCT-116 colon
[16] = tested on: HCT-15 colon
[17] = tested on: HL-60(TB) leukemia
[18] = tested on: HOP-62 NSCLC
[19] = tested on: HOP-92 NSCLC
[20] = tested on: HS 578T breast
[21] = tested on: HT29 colon
[22] = tested on: IGROV1 ovarian
[23] = tested on: K-562 leukemia
[24] = tested on: KM12 colon
[25] = tested on: KM20L2 colon
[26] = tested on: LOX IMVI melanoma
[27] = tested on: LXFL 529 NSCLC
[28] = tested on: M14 melanoma
[29] = tested on: M19-MEL melanoma
[30] = tested on: MALME-3M melanoma
[31] = tested on: MCF7 breast
[32] = tested on: MDA-MB-435
[33] = tested on: MOLT-4 leukemia
[34] = tested on: NCI-H226 lung
[35] = tested on: NCI-H23 lung
[36] = tested on: NCI-H460 lung
[37] = tested on: NCI-H522 lung
[38] = tested on: OVCAR-3 ovarian
[39] = tested on: OVCAR-4 ovarian
[40] = tested on: OVCAR-5 ovarian
[41] = tested on: OVCAR-8 ovarian
[42] = tested on: RPMI-8226 leukemia
[43] = tested on: RXF 393 renal
[44] = tested on: SF-268 CNS
[45] = tested on: SF-295 CNS
[46] = tested on: SF-539 CNS
[47] = tested on: SK-MEL-2 melanoma
[48] = tested on: SK-MEL-28 melanoma
[49] = tested on: SK-MEL-5 melanoma
[50] = tested on: SK-OV-3 ovarian
[51] = tested on: SN12C renal
[52] = tested on: SNB-19 CNS
[53] = tested on: SNB-75 CNS
[54] = tested on: SNB-78 CNS
[55] = tested on: SR leukemia
[56] = tested on: SW-620 colon
[57] = tested on: T-47D breast
[58] = tested on: TK-10 renal
[59] = tested on: U251 CNS
[60] = tested on: UACC-257 melanoma
[61] = tested on: UACC-62 melanoma
[62] = tested on: UO-31 renal
[63] = tested on: XF 498 CNS

O=C(Nc1cccc(C(F)(F)F)c1)C(=O)C(C(=O)c1ccc2ccccc2c1)C1OC(=O)c2ccccc21 (centres undefined)
TGI [1]: 15.9 µM
TGI [2]: 20.3 µM
TGI [3]: 78.3 µM
TGI [4]: 73.5 µM
TGI [5]: 93.9 µM
TGI [6]: > 100 µM
TGI [7]: 29.1 µM
TGI [8]: 38.9 µM
TGI [9]: 23.4 µM
TGI [10]: 17.1 µM
TGI [11]: > 100 µM
TGI [12]: 81.2 µM
TGI [13]: 27.5 µM
TGI [14]: 23.5 µM
TGI [15]: 21.2 µM
TGI [16]: 32.2 µM
TGI [17]: 40.9 µM
TGI [18]: 36.8 µM
TGI [19]: > 100 µM
TGI [20]: 45.2 µM
TGI [21]: 38.2 µM
TGI [22]: 71.6 µM
TGI [23]: > 73.7 µM
TGI [24]: 29 µM
TGI [25]: 33.5 µM
TGI [26]: 20.7 µM
TGI [27]: 20.8 µM
TGI [28]: 34.4 µM
TGI [29]: 31.1 µM
TGI [30]: 17 µM
TGI [31]: 45.8 µM
TGI [32]: > 100 µM
TGI [33]: 11.1 µM
TGI [34]: 11.5 µM
TGI [35]: 17.7 µM
TGI [36]: 36.3 µM
TGI [37]: 25.6 µM
TGI [38]: 55.6 µM
TGI [39]: > 42.7 µM
TGI [40]: 31.5 µM
TGI [41]: 35.6 µM
TGI [42]: 60.6 µM
TGI [43]: 11.9 µM
TGI [44]: 49.1 µM
TGI [45]: 23.4 µM
TGI [46]: 10.2 µM
TGI [47]: 15.8 µM
TGI [48]: 15.7 µM
TGI [49]: 24.4 µM
TGI [50]: > 100 µM
TGI [51]: 36.9 µM
TGI [52]: 25.8 µM
TGI [53]: 30.6 µM
TGI [54]: 26.6 µM
TGI [55]: 16 µM
TGI [56]: 37 µM
TGI [57]: 84.8 µM
TGI [58]: 48 µM
TGI [59]: 17.4 µM
TGI [60]: 15.9 µM
TGI [61]: 19.1 µM
TGI [62]: 20.6 µM
TGI [63]: 12.3 µM

CN(C)CCNC(=O)c1ccc(Cl)c2c(Nc3ccc(S(=O)(=O)N=C(N)N)cc3)c3ccccc3nc12
TGI [1]: 35 µM
TGI [3]: 17.2 µM
TGI [4]: 18 µM
TGI [7]: 16.9 µM
TGI [8]: 17.9 µM
TGI [9]: 18.4 µM
TGI [10]: 7.98 µM
TGI [11]: 8.63 µM
TGI [13]: 27.5 µM
TGI [14]: 21.3 µM
TGI [15]: 17.8 µM
TGI [16]: 18.6 µM
TGI [17]: 6.27 µM
TGI [18]: 26.4 µM
TGI [21]: 10.3 µM
TGI [22]: 18.5 µM
TGI [23]: 16.9 µM
TGI [24]: 20.7 µM
TGI [25]: 19.2 µM
TGI [26]: 5.5 µM
TGI [27]: 18.4 µM
TGI [28]: 53.6 µM
TGI [29]: 17.3 µM
TGI [33]: 2.66 µM
TGI [34]: 6.67 µM
TGI [36]: 10.2 µM
TGI [37]: 3.79 µM
TGI [38]: 30.6 µM
TGI [39]: 5.24 µM
TGI [41]: 15.2 µM
TGI [43]: 19.3 µM
TGI [44]: 19.7 µM
TGI [45]: 15.2 µM
TGI [46]: 14.7 µM
TGI [47]: 24.5 µM
TGI [48]: 26.6 µM
TGI [49]: 25.5 µM
TGI [51]: 16.6 µM
TGI [52]: 6.6 µM
TGI [54]: 48.1 µM
TGI [55]: 9.06 µM
TGI [56]: 14.9 µM
TGI [58]: 38.7 µM
TGI [59]: 16.4 µM
TGI [61]: 20.3 µM
TGI [62]: 3.23 µM
TGI [63]: 27.1 µM

COc1ccc2c(c1)O[C@@H]1c3ccc(OC)cc3OC[C@H]21
TGI [1]: 72.1 µM
TGI [3]: > 100 µM
TGI [4]: > 100 µM
TGI [6]: > 100 µM
TGI [7]: 80.5 µM
TGI [9]: > 100 µM
TGI [10]: 58.9 µM
TGI [11]: > 100 µM
TGI [14]: > 100 µM
TGI [15]: > 100 µM
TGI [16]: > 100 µM
TGI [17]: > 100 µM
TGI [18]: > 100 µM
TGI [19]: 79.7 µM
TGI [22]: > 100 µM
TGI [23]: 57.3 µM
TGI [24]: > 100 µM
TGI [26]: 83.7 µM
TGI [27]: > 100 µM
TGI [28]: > 100 µM
TGI [29]: > 100 µM
TGI [30]: > 100 µM
TGI [33]: 50.3 µM
TGI [34]: 69.6 µM
TGI [35]: > 100 µM
TGI [36]: 82 µM
TGI [37]: 51.6 µM
TGI [38]: > 100 µM
TGI [39]: > 100 µM
TGI [40]: > 100 µM
TGI [41]: > 100 µM
TGI [42]: > 100 µM
TGI [43]: 51 µM
TGI [44]: > 100 µM
TGI [45]: > 100 µM
TGI [46]: > 100 µM
TGI [47]: 89.6 µM
TGI [48]: > 100 µM
TGI [49]: 39.2 µM
TGI [50]: > 100 µM
TGI [51]: > 100 µM
TGI [52]: > 100 µM
TGI [53]: 51.4 µM
TGI [54]: > 100 µM
TGI [55]: 97.5 µM
TGI [56]: > 100 µM
TGI [58]: > 100 µM
TGI [59]: > 100 µM
TGI [61]: > 100 µM
TGI [62]: 77.6 µM
TGI [63]: > 100 µM

CCOC1=CP(=O)(OCC)CC(C)=C1Cl (centres undefined)
TGI [1]: > 100 µM
TGI [2]: > 100 µM
TGI [3]: > 100 µM
TGI [4]: > 100 µM
TGI [6]: > 100 µM
TGI [7]: > 100 µM
TGI [8]: 25.2 µM
TGI [9]: > 100 µM
TGI [10]: > 100 µM
TGI [11]: 75.2 µM
TGI [13]: > 100 µM
TGI [14]: > 100 µM
TGI [15]: > 100 µM
TGI [17]: > 100 µM
TGI [18]: > 100 µM
TGI [19]: > 100 µM
TGI [21]: > 100 µM
TGI [22]: > 100 µM
TGI [23]: > 100 µM
TGI [24]: > 100 µM
TGI [25]: > 100 µM
TGI [26]: > 100 µM
TGI [27]: > 100 µM
TGI [28]: > 100 µM
TGI [29]: > 100 µM
TGI [30]: > 100 µM
TGI [33]: > 100 µM
TGI [34]: > 100 µM
TGI [35]: > 100 µM
TGI [36]: > 100 µM
TGI [37]: > 100 µM
TGI [38]: > 100 µM
TGI [40]: > 100 µM
TGI [41]: > 100 µM
TGI [42]: > 100 µM
TGI [44]: > 100 µM
TGI [45]: > 100 µM
TGI [46]: > 100 µM
TGI [47]: > 100 µM
TGI [48]: > 100 µM
TGI [49]: > 100 µM
TGI [50]: > 100 µM
TGI [51]: > 100 µM
TGI [52]: > 100 µM
TGI [53]: > 100 µM
TGI [54]: > 100 µM
TGI [55]: > 100 µM
TGI [56]: > 100 µM
TGI [58]: > 100 µM
TGI [59]: > 100 µM
TGI [60]: > 100 µM
TGI [61]: > 100 µM
TGI [62]: > 100 µM
